Reference: US20240398943A1, “METHODS OF TREATING CANCER AND THE PHARMACEUTICAL COMPOSITIONS THEREOF” (SYSTIMMUNE, INC., priority 2021, published 2024)
Several values for one entry are separate records, joined by “and”; a condition that tells them apart may be missing. Equal values may be shown once. Read-outs that look alike come from different tables or passages of the source.

Key:
[1] = test system: FaDu cells (wild type EGFR) tumor xenograft
Method: (§1) Xenotransplantation of human cancer cells into immunocompromised mice is a gold-standard model used for pre-clinical oncology research and testing of anti-cancer therapies. In general, human cancer cell lines are injected below the skin of the mouse. […] The primary outcome parameter is growth inhibition by the drug, for which tumor size is measured over time, often externally with calipers. After the tumor reaches a certain size, the mice are euthanized. Drug effects on the tumor are further analyzed on a tissue level or molecular level (e.g., DNA, proteins). The primary outcome parameter of a xenograft model for testing drug efficacy is the growth of the treated tumor versus control. Typically, xenograft tumors grow from 100 mm^3 (6 mm diameter) to 1000 mm^3 (12 mm diameter) in several weeks. The growth rate often declines with larger tumor sizes, as opposed to exponential growth in (2D) in vitro experiments. Tumor growth inhibition varies per drug and implanted cell line. The effect of therapeutics can be directly on tumor cells, or indirectly via the microenvironment such as the inhibition of vessel formation, or both.
(§2) The experiment animals used were of Balb/c-nu mouse, female, ages 5^˜7 weeks, weight 17^˜21 g.
To establish xenograft model of HNSCC, human head and neck cancer cells, FaDu cells, were transplanted into the mice to establish the xenograft model of HNSCC. FaDu is a cell line isolated from a hypopharyngeal tumor of a squamous cell carcinoma patient, which expresses wild type EGFR (ATCC).
(§3) Each of the three human cancer cell lines was cultured in RPMI1640 medium containing 10% fetal bovine serum, collected in the exponential growth phase, resuspended in PBS to a suitable concentration, and used for subcutaneous tumor implantation in mice.
When the tumor grew to an average volume of about 230 mm3, randomly grouped according to tumor size and mouse weight to establish human head and neck squamous cell carcinoma cells FaDu xenograft model.
(§4) Tumor volume (mm3) V=½×(a×b)^2, where a represents the long diameter and b represents the short diameter. Relative tumor volume (RTV), RTV=Vt/V0, where V0 is the tumor volume at time 0 and Vt is the tumor volume after treatment at time t. The T/C value (%) is an indicator of the tumor response to treatment and is the most used evaluation indicator. T/C %=TRTV/CRTV×100%, where TRTV is treatment group average RTV and CRTV is control group average RTV. The T/C value (%) can also be calculated as T/C %=TTW/CTW×100%, where TTW is the average tumor weight at the end of the treatment group experiment and CTW is the average tumor weight at the end of the control group experiment.

[2] = test system: HCC827_936 cells (EGFR exon19del and exon20ins) tumor xenograft
Method: as §1, §2
(§5) To establish xenograft model of NSCLC, two lung cancer cell lines expressing were used. Human lung adenocarcinoma cell line HCC827_936 was clonally derived from HCC827 cell line isolated from NSCLC tissue of a patient (ATCC). HCC827_936 cells express EGFR mutations of exon19del and exon20ins. The other lung cancer cell line, NCI-H1975 cells (ATCC), express the EGFR L858R/T790M double mutation.
as §3
When the tumor grew to an average volume of about 163 mm^3, randomly grouped according to tumor size and mouse weight to establish HCC827_936 xenograft model.
as §4, with “(mm^3)” for “(mm3)”

[3] = test system: NCI-H1975 cells (EGFR L858R/T790M) tumor xenograft
Method: as §1, §2, §5, §3
When the tumor grew to an average volume of about 170 mm^3, randomly grouped according to tumor size and mouse weight to establish […] NCI-H1975 xenograft model.
as §4, with “(mm^3)” for “(mm3)”

[4] = Osimertinib 96 mg/kg/wk p.o. QD, Day 31
[5] = Osimertinib 96 mg/kg p.o. QD, Day 25

Compound	body weight / weight loss ([1]; all dose groups of the treatment)	death of mice before the end of the experiment ([1]; all dose groups of the treatment, 5 mice per group)	mortality rate ([1]; paclitaxel 20.6 + carboplatin 28 mg/kg i.v. QW) [%]	mice with severe weight loss (>20%) before death ([1]; paclitaxel 20.6 + carboplatin 28 mg/kg i.v. QW, of the 4 mice that died)	TGI ([1]; paclitaxel […] + carboplatin 28 mg/kg i.v. QW) [%]	T/C [2, 4] [%]	Tumor volume x ± SD [2, 4] [mm^3]	mortality rate ([2]; Osimertinib single-agent (96 mg/kg), before D31) [%]	mice died before D31 ([2]; female, Balb/c-nu, mouse, in vivo)	TGI ([2]; mouse, in vivo)	Tumor volume x ± SD ([2]; mouse, in vivo) [mm^3]	T/C [3, 5] [%]	Tumor volume x ± SD [3, 5] [mm^3]	TGI ([3]; mouse, in vivo)	Tumor volume x ± SD ([3]; mouse, in vivo) [mm^3]	mice died before D25 ([3]; mouse, in vivo)
paclitaxel+carboplatin	fluctuated significantly	4	80	3	56.16											
C=CC(=O)Nc1cc(Nc2nccc(-c3cn(C)c4ccccc34)n2)c(OC)cc1N(C)CCN(C)C [Osimertinib]						45.1	344.53	60	3	54.89% and 54.9%	344.5 ± 23.6	4.7	75.02	95.35% and 95.4%	75.0 ± 60.3	no mouse died
